From article PMC5720837, “Identification of a 4-fluorobenzyl L-valinate amide benzoxaborole (AN11736) as a potential development candidate for the treatment of Animal African Trypanosomiasis (AAT)” (Bioorganic & Medicinal Chemistry Letters, 2018) come the findings set out here.

Molecules are shown by their SMILES. Several values for one entry are separate records, joined by “and”; a condition that tells them apart may be missing. Equal values may be shown once.

As a reminder, the IC50 is the point on the concentration scale where inhibition reaches its midpoint. Lower therefore signals greater potency. The term microsomal CLint denotes a measure of how fast metabolising enzymes remove a compound, apart from limits set by blood flow. Lower therefore signals greater metabolic stability.

For data set [1], the system named is Trypanosoma congolense (T. congolense IL-3000 strain), bloodstream form. As to the kind of experiment: Whole cell Alamar Blue assay, T. congolense (72 h in vitro). Particulars: T. congolense IL-3000, 72 h in vitro Alamar Blue assay. Format: cell-based. Put shortly: (§1)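 T. congolense IL-3000 bloodstream forms were grown axenically in HMI-9 (IMDM) with 20% bovine serum at a starting density of 2 × 10^5 for a 72 h assay. T. vivax STIB719 was taken from infected mouse blood and tested ex vivo for 48 h at 4 × 10^5. Alamar Blue fluorescence (ex 536/em 588 nm) gave IC50s from 11-point curves, at least three independent runs.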

The nature of data set [2]: In vitro metabolic stability, bovine S9. Format: in vitro ADME. The following applies: S9 fraction. Put shortly: (§2)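 Stability measured in mouse and bovine S9 fractions.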
The nature of data set [3]: In vitro metabolic stability, mouse S9. Type of data set: in vitro ADME. Particulars: S9 fraction. The procedure, abridged:
as §2

Data set [4] concerns T. v. parasites (STIB719/ILRAD560 strain). As to the kind of experiment: In vivo mouse model of T. vivax infection. On the set-up: species or system NMRI female mice. Particulars: for Efficacy in mouse model T. v., n/m (mice survived / total mice in group): intraperitoneal, monitored 60 days post treatment; for curative efficacy in the T. v.-infected mouse model: single dose of 10 mg/kg, IP. The procedure: (§3) Selected compounds were screened in both mouse and bovine in vitro metabolic stability assays (mouse S9 and bovine S9), as summarized in Table 2. These two species were chosen because the primary in vivo assays were conducted in mice, and the target animal of this research program is cattle. […] We evaluated the efficacy of selected compounds in two in vivo mouse models of infection, against T. congolense and T. vivax, respectively. Mice were infected with either 1 × 10^5 T. c. parasites or 1 × 10^4 T. v. parasites, and then treated with a test compound via intraperitoneal administration for 1, 2 or 4 consecutive days. The mice were then monitored for the presence of parasitemia for up to 60 days post treatment.[7] We tested in T. c. model first, then followed up with T. v. for interesting compounds. […] We selected compound 5 (AN11736) to progress to exploratory studies to determine the efficacy and safety in a preliminary formulation against induced infections of T. vivax and T. congolense in cattle.[8]
[7] Methods for testing compound efficacy in mouse models: In vivo mouse efficacy studies were performed at the Swiss TPH, using established mouse models of infection for T. c. and T. v. NMRI female mice were independently infected either with 1 × 10^5T. c. parasites/mouse (STIB736/IL1180 strain) or 1 × 10^4T. v. parasites/mouse (STIB719/ILRAD560 strain) using an intraperitoneal route. Parasitemia was allowed to develop over 7 days (T. c.) or 3 days (T. v.), respectively, before treatment was administered. Compounds were administered via intraperitoneal injection in 10% DMSO/water. Four mice were used per treatment group. Mice were monitored for the presence of trypanosomes, via tail blood examination microscopically with twice-per-week parasitemia checks for 60 days post treatment. Parasitemia was graded on a scale of 0–3, with 0 indicating no trypanosomes seen in 20 fields of view, 1 indicating the presence of 1–5 trypanosomes per field, 2 indicating the presence of 6–20 trypanosomes per field and 3 indicating greater than 20 trypanosomes per field. Mice scoring 2 or 3 were immediately euthanized. After 60 days, aparasitemic mice were considered cured. Untreated control mice survive on average for 10 and 6 days post infection for T. c. and T. v., respectively. All in vivo mouse experiments were conducted in accordance with the strict guidelines set out by the Swiss Federal Veterinary Office, under the ethical approval of license number #2813.

In data set [5] the test system is T. c. parasites (STIB736/IL1180 strain). As to the kind of experiment: In vivo mouse model of T. congolense infection. On the set-up: species or system NMRI female mice. Particulars: for Efficacy in mouse model T. c., n/m (mice survived / total mice in group): intraperitoneal, monitored 60 days post treatment; for curative efficacy in the T. c.-infected mouse model: single dose of 10 mg/kg. The procedure, abridged: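 Female NMRI mice infected i.p. with 1 × 10^5 T. congolense STIB736/IL1180 or 1 × 10^4 T. vivax STIB719/ILRAD560. Treatment began after 7 (T. c.) or 3 (T. v.) days, i.p. in 10% DMSO/water for 1, 2 or 4 consecutive days, four mice per group. Tail-blood parasitemia checked twice weekly; mice aparasitemic at 60 days counted as cured.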

For data set [6], the system named is Trypanosoma vivax (T. vivax STIB719/ILRAD 560 strain), bloodstream form. As to the kind of experiment: Whole cell Alamar Blue assay, T. vivax (48 h ex vivo). Type of data set: cell-based. The following applies: Trypanosoma vivax; T. vivax STIB719/ILRAD 560, 48 h ex vivo Alamar Blue assay. Put shortly: as §1
For orientation: The colour change of resazurin is a common sign of viable cells or microbes.

A further data set has as its system T. vivax. As to the kind of experiment: Efficacy against induced T. vivax infection in cattle. Type of data set: in vivo. Particulars: single intramuscular injection of 10 mg/kg, 100 days post treatment. The method, then: as §3
(§4) [8] Method for testing compound efficacy in cattle: The cattle studies were conducted in accordance with the method described for cattle by Eisler et al. (2001) in studies conducted in fly-proof facilities and using T. congolense and T. vivax isolates that had previously been confirmed resistant in cattle to diminazine (7 mg/kg live weight) and/or isometamidium (1 mg/kg live weight). […]

In another data set the test system is T. congolense. As to the kind of experiment: Efficacy against induced T. congolense infection in cattle. Type of data set: in vivo. The following applies: single intramuscular injection of 10 mg/kg, 100 days post treatment. The method, then: as §3, §4

`Cc1c(C(=O)N[C@H](C(=O)OCC2CCC(F)(F)CC2)C(C)C)ccc2c1B(O)OC2` [Compound 71]: the IC50 is 0.2 nM in data set [1] (Trypanosoma congolense, 72 h) and 0.14 nM in data set [6]. Moreover, the values for the microsomal CLint in data set [2] and in data set [3] were 8.1 µL/min/mg and 6.4 µL/min/mg, respectively. Also, the “Efficacy in mouse model T. v., n/m (mice survived / total mice in group)” value in data set [4] (1 × 10 mg/kg) is listed as 4/4 (1 × 10). The “curative efficacy in the T. v.-infected mouse model” value in data set [4] is reported as 100%. The “Efficacy in mouse model T. c., n/m (mice survived / total mice in group)” value in data set [5] (1 × 10 mg/kg) is recorded as 3/4 (1 × 10).

In the case of `Cc1c(C(=O)N[C@H](C(=O)OCc2cccc(N3CCN(C)CC3)c2)C(C)C)ccc2c1B(O)OC2` [Compound 50], the IC50 in data set [1] (Trypanosoma congolense, 72 h) amounted to 0.32 nM; in data set [6], 0.48 nM. Moreover, the microsomal CLint stood at 12.7 µL/min/mg in data set [2] and 8.6 µL/min/mg in data set [3]. For the same compound, in data set [4] (1 × 10 mg/kg), the “Efficacy in mouse model T. v., n/m (mice survived / total mice in group)” value is 4/4 (1 × 10). For the same compound, the “Efficacy in mouse model T. c., n/m (mice survived / total mice in group)” value in data set [5] (1 × 10 mg/kg) is on record as 1/4 (1 × 10).

For the compound `Cc1c(C(=O)N[C@H](C(=O)OCc2ccc(F)cc2)C(C)C)ccc2c1B(O)OC2` [Compound 5, 4-fluorobenzyl (1-hydroxy-7-methyl-1,3-dihydrobenzo[c][1,2]oxaborole-6-carbonyl)-L-valinate], the “curative efficacy against T. vivax in cattle” value with T. vivax turned out to be 100%. The IC50 amounted to 0.14 nM in data set [1]; 0.15 nM in data set [1] (Trypanosoma congolense, 72 h); 1.3 nM in data set [6]. The microsomal CLint in data set [2] was 9.3 µL/min/mg; in data set [3], 5.4 µL/min/mg. The “curative efficacy against T. congolense in cattle” value in the data set on T. congolense was found to be 100%. Further, the “Efficacy in mouse model T. v., n/m (mice survived / total mice in group)” value was 5/5 and 4/4 in data set [4] (1 × 10 mg/kg, 10 mg/kg); 5/5 in data set [4] (2 × 10 mg/kg). Moreover, the “curative efficacy in the T. v.-infected mouse model” value in data set [4] came to 100%. Moreover, the “Efficacy in mouse model T. c., n/m (mice survived / total mice in group)” value in data set [5] (1 × 5 mg/kg) is 0/4; in data set [5] (1 × 10 mg/kg) it was 4/4; in data set [5] (2 × 10 mg/kg), 5/5. The “cure of T. c.-infected mice” value in data set [5] (single 5 mg/kg dose, IP) is on record as “unable to cure”.

For the compound `Cc1c(C(=O)N[C@H](C(=O)OCc2ccc(C(F)(F)F)cn2)C(C)C)ccc2c1B(O)OC2` [Compound 34], the IC50 in data set [1] (Trypanosoma congolense, 72 h) came out at 0.14 nM; in data set [6] it was 0.07 nM. For the same compound, the microsomal CLint is 4.8 µL/min/mg in data set [2] and 11.8 µL/min/mg in data set [3]. The “Efficacy in mouse model T. v., n/m (mice survived / total mice in group)” value in data set [4] (1 × 10 mg/kg) is listed as 4/4 (1 × 10). The “curative efficacy in the T. v.-infected mouse model” value in data set [4] turned out to be 100%. In addition, the “Efficacy in mouse model T. c., n/m (mice survived / total mice in group)” value in data set [5] (1 × 10 mg/kg) was 2/4 (1 × 10). Further, in data set [5] (IP), the “curative efficacy in the T. c.-infected mouse model” value is ≥ 50%.

As for `Cc1c(C(=O)N[C@H](C(=O)OCC2CCCCC2)C(C)C)ccc2c1B(O)OC2` [Compound 62], the IC50 in data set [1] (Trypanosoma congolense, 72 h) amounted to 0.38 nM; in data set [6], 0.16 nM. The intrinsic clearance (microsomal CLint) in data set [2] worked out at 20 µL/min/mg; in data set [3], 10 µL/min/mg. In addition, the “Efficacy in mouse model T. v., n/m (mice survived / total mice in group)” value in data set [4] (1 × 10 mg/kg) is 4/4 (1 × 10). Further, in data set [4], the “curative efficacy in the T. v.-infected mouse model” value is given as 100%. In data set [5] (1 × 10 mg/kg), the “Efficacy in mouse model T. c., n/m (mice survived / total mice in group)” value is reported as 2/4 (1 × 10). In addition, the “curative efficacy in the T. c.-infected mouse model” value in data set [5] (IP) is given as ≥ 50%.
